Laboratory results as given in ChEMBL document CHEMBL1201862, “PubChem BioAssay data set” (2004).
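Method: 48-hour compound exposure of cells in 96-well plates, five concentrations, linear interpolation of endpoints. The concentration for 50% growth inhibition is given as GI50.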 Active and inactive are the calls of the source. Cut-off read from the data, not from the text of the source: active = GI50 up to about 1.1 µM and inactive = higher.

Tests used:
Experiment in all cases: NCI tumour cell line growth inhibition, 48 h
[1] = tested on: 786-0
[2] = tested on: A498
[3] = tested on: A549
[4] = tested on: ACHN
[5] = tested on: BT-549
[6] = tested on: CAKI-1
[7] = tested on: CCRF-CEM
[8] = tested on: COLO 205
[9] = tested on: DU-145
[10] = tested on: EKVX
[11] = tested on: HCC 2998
[12] = tested on: HCT-116
[13] = tested on: HCT-15
[14] = tested on: HL-60
[15] = tested on: HOP-62
[16] = tested on: HOP-92
[17] = tested on: HT-29
[18] = tested on: Hs-578T
[19] = tested on: IGROV-1
[20] = tested on: KM12
[21] = tested on: LOX IMVI
[22] = tested on: M14
[23] = tested on: MCF7
[24] = tested on: MDA-MB-231
[25] = tested on: MDA-MB-435
[26] = tested on: MDA-N
[27] = tested on: MOLT-4
[28] = tested on: Malme-3M
[29] = tested on: NCI-H226
[30] = tested on: NCI-H23
[31] = tested on: NCI-H522
[32] = tested on: NCI/ADR-RES
[33] = tested on: OVCAR-3
[34] = tested on: OVCAR-4
[35] = tested on: OVCAR-5
[36] = tested on: OVCAR-8
[37] = tested on: PC-3
[38] = tested on: RPMI-8226
[39] = tested on: RXF 393
[40] = tested on: SF-268
[41] = tested on: SF-295
[42] = tested on: SK-MEL-28
[43] = tested on: SK-MEL-2
[44] = tested on: SK-MEL-5
[45] = tested on: SK-OV-3
[46] = tested on: SN12C
[47] = tested on: SNB-19
[48] = tested on: SNB-75
[49] = tested on: SR
[50] = tested on: SW-620
[51] = tested on: T47D
[52] = tested on: TK-10
[53] = tested on: U-251
[54] = tested on: UACC-257
[55] = tested on: UACC-62
[56] = tested on: K562
[57] = tested on: NCI-H460
[58] = tested on: SF-539
[59] = tested on: UO-31

COc1cc(C2S/C(=C/c3ccccc3)C(=O)N2c2ccc(Cl)cc2)cc(OC)c1OC (centres undefined)
GI50 [1]: > 100 µM (inactive)
GI50 [2]: 53.8 µM (inactive)
GI50 [3]: 24.4 µM (inactive)
GI50 [4]: 0.178 µM (active)
GI50 [5]: 7.43 µM (inactive)
GI50 [6]: 20.9 µM (inactive)
GI50 [7]: 4.4 µM (inactive)
GI50 [8]: 0.617 µM (active)
GI50 [9]: 54.2 µM (inactive)
GI50 [10]: 23.8 µM (inactive)
GI50 [11]: 36.6 µM (inactive)
GI50 [12]: 3.65 µM (inactive)
GI50 [13]: 9.51 µM
GI50 [14]: 23.2 µM (inactive)
GI50 [15]: 14.2 µM (inactive)
GI50 [16]: 5.92 µM (inactive)
GI50 [17]: 23.8 µM (inactive)
GI50 [18]: 32.3 µM (inactive)
GI50 [19]: 13.5 µM (inactive)
GI50 [20]: 11.3 µM (inactive)
GI50 [21]: 6.03 µM (inactive)
GI50 [22]: 2 µM (inactive)
GI50 [23]: 3.09 µM (inactive)
GI50 [24]: > 43.9 µM (inactive)
GI50 [25]: 1.52 µM (inactive)
GI50 [26]: 1.58 µM (inactive)
GI50 [27]: 5.79 µM (inactive)
GI50 [28]: 23.7 µM (inactive)
GI50 [29]: > 89.1 µM (inactive)
GI50 [30]: 12.7 µM (inactive)
GI50 [31]: 0.656 µM (active)
GI50 [32]: 16.9 µM (inactive)
GI50 [33]: 26.4 µM (inactive)
GI50 [34]: 4.71 µM (inactive)
GI50 [35]: > 100 µM (inactive)
GI50 [36]: 22.1 µM (inactive)
GI50 [37]: > 46.6 µM (inactive)
GI50 [38]: 8.18 µM (inactive)
GI50 [39]: 40.6 µM (inactive)
GI50 [40]: 8.24 µM (inactive)
GI50 [41]: 7.64 µM (inactive)
GI50 [42]: 63.2 µM (inactive)
GI50 [43]: 7.98 µM (inactive)
GI50 [44]: 0.492 µM (active)
GI50 [45]: > 20.1 µM (inactive)
GI50 [46]: 39.1 µM (inactive)
GI50 [47]: > 88.7 µM (inactive)
GI50 [48]: 16.4 µM (inactive)
GI50 [49]: 70 µM (inactive)
GI50 [50]: 12.9 µM (inactive)
GI50 [51]: 0.705 µM (active)
GI50 [52]: > 100 µM (inactive)
GI50 [53]: 37.7 µM (inactive)
GI50 [54]: 34.2 µM (inactive)
GI50 [55]: 23.3 µM (inactive)

C[C@]12CC[C@@H]3c4cc(OCC(F)(F)F)c(O)cc4C(=O)C[C@H]3[C@@H]1CC[C@@H]2O
GI50 [1]: 10.8 µM (inactive)
GI50 [2]: 7.93 µM (inactive)
GI50 [3]: 6.98 µM (inactive)
GI50 [4]: 20.7 µM (inactive)
GI50 [5]: 6.34 µM (inactive)
GI50 [6]: 6.93 µM (inactive)
GI50 [7]: 3.39 µM (inactive)
GI50 [8]: 26.6 µM (inactive)
GI50 [9]: 17.3 µM (inactive)
GI50 [10]: 14.7 µM (inactive)
GI50 [11]: 6.11 µM (inactive)
GI50 [12]: 3.72 µM (inactive)
GI50 [13]: 4.18 µM
GI50 [14]: 1.84 µM (inactive)
GI50 [15]: 12.6 µM (inactive)
GI50 [16]: 20.7 µM (inactive)
GI50 [17]: 12.9 µM (inactive)
GI50 [18]: 4.92 µM (inactive)
GI50 [19]: 13.6 µM (inactive)
GI50 [56]: 2.26 µM (inactive)
GI50 [20]: 10.6 µM (inactive)
GI50 [21]: 5.79 µM (inactive)
GI50 [22]: 5.77 µM (inactive)
GI50 [23]: 5.07 µM (inactive)
GI50 [24]: 12.9 µM (inactive)
GI50 [25]: 1.78 µM (inactive)
GI50 [26]: 1.6 µM (inactive)
GI50 [27]: 3.5 µM (inactive)
GI50 [28]: 3.63 µM (inactive)
GI50 [29]: 22.5 µM (inactive)
GI50 [30]: 12 µM (inactive)
GI50 [57]: 4.71 µM (inactive)
GI50 [31]: 3.3 µM (inactive)
GI50 [32]: 6.35 µM (inactive)
GI50 [33]: 2.88 µM (inactive)
GI50 [34]: 27.2 µM (inactive)
GI50 [35]: 29.9 µM (inactive)
GI50 [36]: 23.1 µM (inactive)
GI50 [37]: 18.5 µM (inactive)
GI50 [38]: 3.2 µM (inactive)
GI50 [39]: 13 µM (inactive)
GI50 [40]: 13.7 µM (inactive)
GI50 [41]: 3.6 µM (inactive)
GI50 [58]: 5.09 µM (inactive)
GI50 [42]: 7.64 µM (inactive)
GI50 [43]: 11.4 µM (inactive)
GI50 [44]: 5.87 µM (inactive)
GI50 [45]: 10.6 µM (inactive)
GI50 [46]: 13.1 µM (inactive)
GI50 [47]: 13.5 µM (inactive)
GI50 [48]: 5.36 µM (inactive)
GI50 [49]: 1.51 µM (inactive)
GI50 [50]: 4.02 µM (inactive)
GI50 [51]: 29.1 µM (inactive)
GI50 [52]: 18.7 µM (inactive)
GI50 [53]: 4.67 µM (inactive)
GI50 [54]: 12.2 µM (inactive)
GI50 [55]: 3.26 µM (inactive)
GI50 [59]: 13.6 µM (inactive)
